Reference: patent publication US7847065B2, “CXADRL1 polypeptides relating to human cancers” (Oncotherapy Science, Inc., priority 2002, dated 2010)
Ends that are not written are not given here.

The sequences below were run on TISI cells (HLA-A24/24).
Description: (§1) Target cells were labeled with 100 μCi of Na2^51CrO4 (Perkin Elmer Life Sciences) for 1 h at 37° C. in a CO2 incubator. When peptide-pulsed targets were used, target cells were incubated with the addition of 20 μg/ml of the peptide for 16 h at 37° C. before the labeling with Na2^51CrO4. Target cells were rinsed and mixed with effectors at a final volume of 0.2 ml in round-bottom microtiter plates. The plates were centrifuged (4 minutes at 800×g) to increase cell-to-cell contact and placed in a CO2 incubator at 37° C. After 4 h of incubation, 0.1 ml of the supernatant was collected from each well and the radioactivity was determined with a gamma counter. In case of evaluating cytotoxicity against target cells that endogenously express RNF43, CXADRL1, or GCUD1, the cytolytic activity was tested in the presence of a 30-fold excess of unlabeled K562 cells to reduce any non-specific lysis due to NK-like effectors. […] The MHC restriction was examined by blocking assay, measuring the inhibition of the cytotoxicity with anti-HLA-class I (W6/32) antibody and anti-HLA-class II antibody, or anti-CD4 antibody and anti-CD8 antibody (DAKO).
(§2) The percentage of specific cytotoxicity was determined by calculating the percentage of specific ^51Cr-release by the following formula: {(cpm of the test sample release−cpm of the spontaneous release)/(cpm of the maximum release−cpm of the spontaneous release)}×100. Spontaneous release was determined by incubating the target cells alone in the absence of effectors, and the maximum release was obtained by incubating the targets with 1N HCl. All determinants were done in duplicate, and the standard errors of the means were consistently below 10% of the value of the mean.

First: RAPGEQQRL [RNF43-397, RAPGEQQRL]
Second: RPPRPGPFL [RNF43-368, RPPRPGPFL]
The “Cytotoxicity of CTL lines (9mer) ×2 Pep(+)” value of the first is higher: 15% for the first, 0% for the second.

Compared with GFGRTGLVL [RNF43-24, GFGRTGLVL], RAPRPCLSL [RNF43-114, RAPRPCLSL] is higher in “Cytotoxicity of CTL lines (9mer) ×2 Pep(+)” value: 1% for the first, 6% for the second.

Compared with RYQASCRQA [RNF43-247, RYQASCRQA], LFNLQKSSL [RNF43-639, LFNLQKSSL] is lower in “Cytotoxicity of CTL lines (9mer) ×2 Pep(+)” value: 28% for the first, 7% for the second.

SYQEPGRRL [RNF43-331, SYQEPGRRL] was tested, and the “Cytotoxicity of CTL lines (9mer) ×2 Pep(+)” value was 0%.

Going from RAPGEQQRL [RNF43-397, RAPGEQQRL] to RPPRPGPFL [RNF43-368, RPPRPGPFL], the “Cytotoxicity of CTL lines (9mer) ×2 Pep(−)” value falls from 15% to 0%.

Going from GFGRTGLVL [RNF43-24, GFGRTGLVL] to RAPRPCLSL [RNF43-114, RAPRPCLSL], the “Cytotoxicity of CTL lines (9mer) ×2 Pep(−)” value rises from 2% to 9%.

First: RYQASCRQA [RNF43-247, RYQASCRQA]
Second: LFNLQKSSL [RNF43-639, LFNLQKSSL]
The “Cytotoxicity of CTL lines (9mer) ×2 Pep(−)” value of the first is higher: 16% for the first, 5% for the second.

For SYQEPGRRL [RNF43-331, SYQEPGRRL], the “Cytotoxicity of CTL lines (9mer) ×2 Pep(−)” value was 0%.

Compared with RAPGEQQRL [RNF43-397, RAPGEQQRL], RPPRPGPFL [RNF43-368, RPPRPGPFL] is lower in “Cytotoxicity of CTL lines (9mer) ×20 Pep(+)” value: 41% for the first, 1% for the second.

First: GFGRTGLVL [RNF43-24, GFGRTGLVL]
Second: RAPRPCLSL [RNF43-114, RAPRPCLSL]
The “Cytotoxicity of CTL lines (9mer) ×20 Pep(+)” value of the first is lower: 8% for the first, 23% for the second.

Compared with RYQASCRQA [RNF43-247, RYQASCRQA], LFNLQKSSL [RNF43-639, LFNLQKSSL] is lower in “Cytotoxicity of CTL lines (9mer) ×20 Pep(+)” value: 71% for the first, 42% for the second.

With SYQEPGRRL [RNF43-331, SYQEPGRRL] the “Cytotoxicity of CTL lines (9mer) ×20 Pep(+)” value was 2%.

Compared with RAPGEQQRL [RNF43-397, RAPGEQQRL], RPPRPGPFL [RNF43-368, RPPRPGPFL] is lower in “Cytotoxicity of CTL lines (9mer) ×20 Pep(−)” value: 32% for the first, 0% for the second.

Compared with GFGRTGLVL [RNF43-24, GFGRTGLVL], RAPRPCLSL [RNF43-114, RAPRPCLSL] is higher in “Cytotoxicity of CTL lines (9mer) ×20 Pep(−)” value: 9% for the first, 26% for the second.

Compared with RYQASCRQA [RNF43-247, RYQASCRQA], LFNLQKSSL [RNF43-639, LFNLQKSSL] is lower in “Cytotoxicity of CTL lines (9mer) ×20 Pep(−)” value: 82% for the first, 33% for the second.

For SYQEPGRRL [RNF43-331, SYQEPGRRL], the “Cytotoxicity of CTL lines (9mer) ×20 Pep(−)” value was 1%.

SYCTERSGYL [RNF43-449, SYCTERSGYL] and HYTPSVAYPW [RNF43-683, HYTPSVAYPW] are the same in “Cytotoxicity of CTL lines (10mer) ×2 Pep(+)” value: 0% for the first, 0% for the second.

KMDPTGKLNL [RNF43-54, KMDPTGKLNL] and TFCSSLSSDF [RNF43-496, TFCSSLSSDF] are the same in “Cytotoxicity of CTL lines (10mer) ×2 Pep(+)” value: 0% for the first, 0% for the second.

First: SYCTERSGYL [RNF43-449, SYCTERSGYL]
Second: HYTPSVAYPW [RNF43-683, HYTPSVAYPW]
The “Cytotoxicity of CTL lines (10mer) ×2 Pep(−)” value of the first is higher: 0% for the first, −1% for the second.

Going from KMDPTGKLNL [RNF43-54, KMDPTGKLNL] to TFCSSLSSDF [RNF43-496, TFCSSLSSDF], the “Cytotoxicity of CTL lines (10mer) ×2 Pep(−)” value rises from −1% to 0%.

First: SYCTERSGYL [RNF43-449, SYCTERSGYL]
Second: HYTPSVAYPW [RNF43-683, HYTPSVAYPW]
The “Cytotoxicity of CTL lines (10mer) ×20 Pep(+)” value of the first is higher: 1% for the first, 0% for the second.

Going from KMDPTGKLNL [RNF43-54, KMDPTGKLNL] to TFCSSLSSDF [RNF43-496, TFCSSLSSDF], the “Cytotoxicity of CTL lines (10mer) ×20 Pep(+)” value rises from 5% to 8%.

Going from SYCTERSGYL [RNF43-449, SYCTERSGYL] to HYTPSVAYPW [RNF43-683, HYTPSVAYPW], the “Cytotoxicity of CTL lines (10mer) ×20 Pep(−)” value falls from 1% to 0%.

First: KMDPTGKLNL [RNF43-54, KMDPTGKLNL]
Second: TFCSSLSSDF [RNF43-496, TFCSSLSSDF]
The “Cytotoxicity of CTL lines (10mer) ×20 Pep(−)” value of the first is lower: 2% for the first, 9% for the second.

For KMDPTGKLNL [RNF43-54, KMDPTGKLNL], the “Cytotoxic activity of peptide-induced CTL line/clone on peptide-pulsed target” value was “modest cytotoxic activity”.
For LFNLQKSSL [RNF43-639, LFNLQKSSL], the “Cytotoxic activity of peptide-induced CTL line/clone on peptide-pulsed target” value was “higher cytotoxic activities”.

These sequences were tested on T2 cells (HLA-A*0201).
Description: as §1, §2

Compared with LLGPSRSAV [RNF43-358, LLGPSRSAV], KLMEFVYKN [RNF43-171, KLMEFVYKN] is higher in “Cytotoxicity(%) ×2 Pep(+)” value: 0.0% for the first, 1.1% for the second.

Compared with GLTWPVVLI [RNF43-156, GLTWPVVLI], WLLMATLQA [RNF43-15, WLLMATLQA] is higher in “Cytotoxicity(%) ×2 Pep(+)” value: −0.5% for the first, −0.4% for the second.

Compared with WLHQHRTCPL [RNF43-302, WLHQHRTCPL], KLNLTLEGV [RNF43-60, KLNLTLEGV] is lower in “Cytotoxicity(%) ×2 Pep(+)” value: 1.5% for the first, −1.6% for the second.

In the case of YLLGPSRSAV [RNF43-357, YLLGPSRSAV], the “Cytotoxicity(%) ×2 Pep(+)” value is reported as 3.7%.

First: LLGPSRSAV [RNF43-358, LLGPSRSAV]
Second: KLMEFVYKN [RNF43-171, KLMEFVYKN]
The “Cytotoxicity(%) ×2 Pep(−)” value of the first is lower: −0.8% for the first, −0.5% for the second.

Compared with GLTWPVVLI [RNF43-156, GLTWPVVLI], WLLMATLQA [RNF43-15, WLLMATLQA] is lower in “Cytotoxicity(%) ×2 Pep(−)” value: −0.3% for the first, −0.9% for the second.

Going from WLHQHRTCPL [RNF43-302, WLHQHRTCPL] to KLNLTLEGV [RNF43-60, KLNLTLEGV], the “Cytotoxicity(%) ×2 Pep(−)” value falls from 2.2% to 0.0%.

YLLGPSRSAV [RNF43-357, YLLGPSRSAV] was tested, and the “Cytotoxicity(%) ×2 Pep(−)” value was 3.0%.

Compared with LLGPSRSAV [RNF43-358, LLGPSRSAV], KLMEFVYKN [RNF43-171, KLMEFVYKN] is higher in “Cytotoxicity(%) ×20 Pep(+)” value: −0.4% for the first, 2.6% for the second.

Going from GLTWPVVLI [RNF43-156, GLTWPVVLI] to WLLMATLQA [RNF43-15, WLLMATLQA], the “Cytotoxicity(%) ×20 Pep(+)” value rises from −0.4% to −0.2%.

First: WLHQHRTCPL [RNF43-302, WLHQHRTCPL]
Second: KLNLTLEGV [RNF43-60, KLNLTLEGV]
The “Cytotoxicity(%) ×20 Pep(+)” value of the first is higher: 7.4% for the first, −2.1% for the second.

YLLGPSRSAV [RNF43-357, YLLGPSRSAV] was tested, and the “Cytotoxicity(%) ×20 Pep(+)” value was 18.2%.

Going from LLGPSRSAV [RNF43-358, LLGPSRSAV] to KLMEFVYKN [RNF43-171, KLMEFVYKN], the “Cytotoxicity(%) ×20 Pep(−)” value rises from −0.7% to 0.0%.

First: GLTWPVVLI [RNF43-156, GLTWPVVLI]
Second: WLLMATLQA [RNF43-15, WLLMATLQA]
The “Cytotoxicity(%) ×20 Pep(−)” value of the first is higher: 0.7% for the first, 0.0% for the second.

First: WLHQHRTCPL [RNF43-302, WLHQHRTCPL]
Second: KLNLTLEGV [RNF43-60, KLNLTLEGV]
The “Cytotoxicity(%) ×20 Pep(−)” value of the first is higher: 6.1% for the first, 0.2% for the second.

YLLGPSRSAV [RNF43-357, YLLGPSRSAV] was tested, and the “Cytotoxicity(%) ×20 Pep(−)” value was 15.4%.
